Non-standard residues stand in square brackets, D forms with d. Residues, ends and D or L forms follow the SMILES beside them. ξ: configuration not given here. *: point of attachment. Ala(1H-tetrazol-5-yl) = N[C@@H](Cc1nnn[nH]1)C(=O)O; ξAla(tetrazol-5-yl) = NC(Cc1nnn[nH]1)C(=O)O; Isobutyryl = CC(C)C(=O)*; Nle = CCCC[C@H](N)C(=O)O; Butyryl = CCCC(=O)*
Experiments:
[1] = Stability test 1: survival rate of peptide in phosphate buffer (pH 7.0) after storage, HPLC; type: physicochemical; conditions: 100 μM peptide
Procedure, shortened: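 Peptide solutions at 100 μM in phosphate buffer were stored at 40° C. for 1 week to 2 months depending on peptide. Remaining peptide was measured by reverse-phase HPLC peak area against an unstored standard, with survival rate also corrected for water loss through the container from weighing before and after storage.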

[2] = biological target: T1, VPAC1 receptor (Homo sapiens, UniProt P32241); assay: cAMP assay in CHO-K1 cells, VPAC1 receptor high-expressing cell line; type: cell-based; conditions: 30 minutes incubation
T1 construct: host or cells: CHO-K1
T1 sequence (P32241 31-457): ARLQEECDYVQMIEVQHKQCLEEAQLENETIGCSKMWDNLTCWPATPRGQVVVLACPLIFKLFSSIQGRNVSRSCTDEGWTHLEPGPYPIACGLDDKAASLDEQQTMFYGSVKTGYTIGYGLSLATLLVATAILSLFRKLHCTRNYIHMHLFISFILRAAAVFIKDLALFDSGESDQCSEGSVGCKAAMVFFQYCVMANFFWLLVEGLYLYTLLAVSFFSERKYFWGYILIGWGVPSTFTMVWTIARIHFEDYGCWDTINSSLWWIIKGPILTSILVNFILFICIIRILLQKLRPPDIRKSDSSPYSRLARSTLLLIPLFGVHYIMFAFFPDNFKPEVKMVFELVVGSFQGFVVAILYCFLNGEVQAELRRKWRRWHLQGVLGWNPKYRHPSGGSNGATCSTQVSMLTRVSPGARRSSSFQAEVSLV
Protocol: The cells were cultured for 18 to 24 hours at 37° C. in a 5% CO2 incubator, adhering the cells to the plate. […] A 5-fold dilution series was then prepared with the same Cell assay buffer and used in an assay. The cAMP assay was carried out using a Hit Hunter cAMP Assay for Biologics kit (product of DiscoveRx, Cat. No. 90-0075LM25), according to the included kit instructions. […] Next, the culture medium was removed from the CHO-K1 cell culture plate, washing was performed with PBS, and the peptide-cAMP antibody liquid mixtures were added to the cells and incubated for 30 minutes under a 5% CO2 atmosphere at 37° C. A working detection solution was then added and the culture plate was shielded from light with aluminum foil and incubated at 25° C. for 1 hour. After incubation, Solution A was added and the culture plate was shielded from light with aluminum foil and then incubated at 25° C. for 3 hours. […] The obtained value for the Relative Luminescence Unit (RLU) was analyzed with GraphPad Prism Ver 6.05 (product of Graph Pad) and the EC50 value was calculated for each peptide.

[3] = Stability test 1: survival rate of peptide in phosphate buffer (pH 7.0) after storage, HPLC; type: physicochemical; conditions: 100 μM peptide, 0.1% phosphate buffer pH 7.0, head prints 80° C., 8 weeks (Table 4)
[4] = biological target: T2, PAC1 receptor (PAC1R) (Homo sapiens, UniProt P41586); conditions: background statement; cited from earlier work
T2 sequence (P41586 21-468): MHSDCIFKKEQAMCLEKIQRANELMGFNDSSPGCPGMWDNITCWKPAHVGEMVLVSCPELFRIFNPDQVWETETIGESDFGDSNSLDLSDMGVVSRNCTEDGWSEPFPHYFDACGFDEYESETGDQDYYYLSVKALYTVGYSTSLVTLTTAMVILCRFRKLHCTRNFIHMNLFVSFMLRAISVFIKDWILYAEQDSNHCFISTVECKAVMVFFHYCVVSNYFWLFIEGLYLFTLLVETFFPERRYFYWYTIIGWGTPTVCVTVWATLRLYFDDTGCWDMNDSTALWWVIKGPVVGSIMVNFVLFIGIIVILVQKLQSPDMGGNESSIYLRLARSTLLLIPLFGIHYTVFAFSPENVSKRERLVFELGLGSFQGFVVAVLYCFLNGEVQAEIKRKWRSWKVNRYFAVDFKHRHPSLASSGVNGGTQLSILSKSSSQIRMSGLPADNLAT

[5] = phosphate buffer pH 7.0, 40° C., 4 weeks (Table 8)

Row | Compound | survival rate after correction for water, 40° C. 4 week ([1]; 0.1% phosphate buffer pH 7.0, 40° C., 4 weeks (Table 4)) | EC50 [2] | survival rate after correction for water, 80° C. 8 week [3] | survival rate after correction for water, 40° C. 4 week [1, 5] | affinity of PAC1R for PACAP relative to affinity of PAC1R for VIP [4]
1 | CC[C@H](C)[C@H](NC(=O)CNC(=O)C(Cc1nnn[nH]1)NC(=O)[C@H](CO)NC(=O)[C@@H](N)Cc1c[nH]cn1)C(=O)N[C@@H](Cc1ccccc1)C(=O)N[C@@H](C)C(=O)NC(Cc1nnn[nH]1)C(=O)N[C@@H](C)C(=O)N[C@@H](Cc1ccc(O)cc1)C(=O)N[C@@H](C)C(=O)N[C@@H](CCCNC(=N)N)C(=O)N[C@@H](Cc1ccc(O)cc1)C(=O)N[C@@H](CCCNC(=N)N)C(=O)N[C@@H](CCCCN)C(=O)N[C@@H](CCC(N)=O)C(=O)N[C@@H](CCSC)C(=O)N[C@@H](C)C(=O)N[C@H](C(=O)N[C@@H](CCCCN)C(=O)N[C@@H](CCCCN)C(=O)N[C@@H](Cc1ccc(O)cc1)C(=O)N[C@@H](CC(C)C)C(=O)N[C@@H](C)C(=O)N[C@@H](C)C(=O)N[C@H](C(=O)N[C@@H](CC(C)C)C(N)=O)C(C)C)C(C)C (some centres unmarked) [Peptide 3, HSTzGI FATzAY ARYRK QMAVK KYLAA VL] (H-HS[ξAla(tetrazol-5-yl)]GIFA[ξAla(tetrazol-5-yl)]AYARYRKQMAVKKYLAAVL-NH2) | 92.9% | 111 pM | 85.4% | – | –
2 | CCCC[C@H](NC(=O)[C@H](CCC(N)=O)NC(=O)[C@H](CCCCN)NC(=O)[C@H](CCCNC(=N)N)NC(=O)[C@H](Cc1ccc(O)cc1)NC(=O)[C@H](CCCNC(=N)N)NC(=O)[C@H](CO)NC(=O)[C@H](Cc1ccc(O)cc1)NC(=O)[C@H](CO)NC(=O)[C@H](Cc1nnn[nH]1)NC(=O)[C@@H](NC(=O)[C@H](Cc1ccccc1)NC(=O)[C@@H](NC(=O)CNC(=O)[C@H](Cc1nnn[nH]1)NC(=O)[C@H](CO)NC(=O)[C@H](Cc1c[nH]cn1)NC(=O)CCC)[C@@H](C)CC)[C@@H](C)O)C(=O)N[C@@H](C)C(=O)N[C@H](C(=O)N[C@@H](CCCCN)C(=O)N[C@@H](CCCCN)C(=O)N[C@@H](Cc1ccc(O)cc1)C(=O)N[C@@H](CC(C)C)C(=O)N[C@@H](C)C(=O)N[C@@H](C)C(=O)N[C@H](C(=O)N[C@@H](CC(C)C)C(N)=O)C(C)C)C(C)C [Peptide 18] (Butyryl-HS[Ala(1H-tetrazol-5-yl)]GIFT[Ala(1H-tetrazol-5-yl)]SYSRYRKQ[Nle]AVKKYLAAVL-NH2) | – | 69 pM | – | 65.1% | –
3 | CCCC[C@H](NC(=O)[C@H](CCC(N)=O)NC(=O)[C@H](CCCCN)NC(=O)[C@H](CCCNC(=N)N)NC(=O)[C@H](Cc1ccc(O)cc1)NC(=O)[C@H](CCCNC(=N)N)NC(=O)[C@H](CO)NC(=O)[C@H](Cc1ccc(O)cc1)NC(=O)[C@H](CO)NC(=O)[C@H](Cc1nnn[nH]1)NC(=O)[C@@H](NC(=O)[C@H](Cc1ccccc1)NC(=O)[C@@H](NC(=O)CNC(=O)[C@H](Cc1nnn[nH]1)NC(=O)[C@H](CO)NC(=O)[C@H](Cc1c[nH]cn1)NC(=O)C(C)C)[C@@H](C)CC)[C@@H](C)O)C(=O)N[C@@H](C)C(=O)N[C@H](C(=O)N[C@@H](CCCCN)C(=O)N[C@@H](CCCCN)C(=O)N[C@@H](Cc1ccc(O)cc1)C(=O)N[C@@H](CC(C)C)C(=O)N[C@@H](C)C(=O)N[C@@H](C)C(=O)N[C@H](C(=O)N[C@@H](CC(C)C)C(N)=O)C(C)C)C(C)C [Peptide 19, HSTzGI FTTzSY SRYRK QNIAVK KYLAA VL] (Isobutyryl-HS[Ala(1H-tetrazol-5-yl)]GIFT[Ala(1H-tetrazol-5-yl)]SYSRYRKQ[Nle]AVKKYLAAVL-NH2) | – | 69 pM | – | 68.7% | –
4 | Pituitary adenylate cyclase-activating polypeptide [PACAP] | – | – | – | – | more than 1000 times
